In ChEMBL document CHEMBL4152189, “Incorporation of nitric oxide donor into 1,3-dioxyxanthones leads to synergistic anticancer activity” (Eur J Med Chem, 2018):
The source made the active and inactive calls. The calls are words filed in the database; no cut-off is given here.

Key:
HepG2 [1] = experiment: Cell cycle arrest in human HepG2 cells assessed as accumulation at S phase at 0.66 uM after 24 hrs by propidium iodide/RNAse staining-based flow cytometric analysis; assay type: functional
HepG2 [2] = experiment: Growth inhibition of human HepG2 cells after 24 hrs by MTT assay; assay type: functional, cell-based; details: HepG2, 24 h
MDA-MB-231 = experiment: Growth inhibition of human MDA-MB-231 cells after 24 hrs by MTT assay; assay type: functional, cell-based; details: MDA-MB-231, 24 h
L02 [3] = experiment: Growth inhibition of human HL-7702 cells after 24 hrs by MTT assay; assay type: cell-based; details: L02, 24 h
NIH3T3 = experiment: Growth inhibition of mouse NIH/3T3 cells after 24 hrs by MTT assay; assay type: cell-based; details: NIH3T3, 24 h
[4] = Selectivity index, ratio of IC50 for human HL-7702 cells to IC50 for human HepG2 cells; assay type: toxicity; details: HL-7702 cells versus HepG2 cells, read-out: Ratio IC50
HepG2 [5] = experiment: Induction of apoptosis in human HepG2 cells at 0.16 uM after 24 hrs by Annexin-V/propidium iodide staining-based flow cytometric analysis; assay type: functional
HepG2 [6] = experiment: Induction of apoptosis in human HepG2 cells assessed as early apoptotic cells at 0.33 uM after 24 hrs by Annexin-V/propidium iodide staining-based flow cytometric analysis; assay type: functional
HepG2 [7] = experiment: Induction of apoptosis in human HepG2 cells assessed as late apoptotic/necrotic cells at 0.66 uM after 24 hrs by Annexin-V/propidium iodide staining-based flow cytometric analysis; assay type: functional
HepG2 [8] = experiment: Induction of apoptosis in human HepG2 cells assessed as late apoptotic/necrotic cells at 0.33 uM after 24 hrs by Annexin-V/propidium iodide staining-based flow cytometric analysis; assay type: functional
HepG2 [9] = experiment: Induction of NO generation in human HepG2 cells assessed as nitrite levels at 0.66 uM after 1 hr by Griess assay (reference value: 12.9 +/- 1.5 uM); assay type: functional
HepG2 [10] = experiment: Induction of NO generation in human HepG2 cells assessed as nitrite levels at 0.16 uM after 1 hr by Griess assay (reference value: 12.9 +/- 1.5 uM); assay type: functional
HepG2 [11] = experiment: Induction of NO generation in human HepG2 cells assessed as nitrite levels at 0.16 uM after 3 hrs by Griess assay (reference value: 12.8 +/- 1.5 uM); assay type: functional
HepG2 [12] = experiment: Induction of NO generation in human HepG2 cells assessed as nitrite levels at 0.66 uM after 6 hrs by Griess assay (reference value: 12.6 +/- 1.1 uM); assay type: functional
HepG2 [13] = experiment: Induction of NO generation in human HepG2 cells assessed as nitrite levels at 0.16 uM after 6 hrs by Griess assay (reference value: 12.6 +/- 1.1 uM); assay type: functional
HepG2 [14] = experiment: Induction of NO generation in human HepG2 cells assessed as nitrite levels at 0.33 uM after 6 hrs by Griess assay (reference value: 12.6 +/- 1.1 uM); assay type: functional
HepG2 [15] = experiment: Induction of NO generation in human HepG2 cells assessed as nitrite levels at 0.66 uM after 12 hrs by Griess assay (reference value: 12.7 +/- 1.8 uM); assay type: functional
HepG2 [16] = experiment: Induction of NO generation in human HepG2 cells assessed as nitrite levels at 0.16 uM after 12 hrs by Griess assay (reference value: 12.7 +/- 1.8 uM); assay type: functional
HepG2 [17] = experiment: Induction of NO generation in human HepG2 cells assessed as nitrite levels at 0.33 uM after 12 hrs by Griess assay (reference value: 12.7 +/- 1.8 uM); assay type: functional
HepG2 [18] = experiment: Induction of NO generation in human HepG2 cells assessed as nitrite levels at 0.16 uM after 48 hrs by Griess assay (reference value: 12.8 +/- 1.7 uM); assay type: functional
HepG2 [19] = experiment: Induction of NO generation in human HepG2 cells assessed as nitrite levels at 0.33 uM after 48 hrs by Griess assay (reference value: 12.8 +/- 1.7 uM); assay type: functional
HepG2 [20] = experiment: Induction of NO generation in human HepG2 cells assessed as nitrite levels at 0.66 uM after 60 hrs by Griess assay (reference value: 12.8 +/- 1.5 uM); assay type: functional
HepG2 [21] = experiment: Induction of NO generation in human HepG2 cells assessed as nitrite levels at 0.16 uM after 60 hrs by Griess assay (reference value: 12.8 +/- 1.5 uM); assay type: functional
HepG2 [22] = experiment: Induction of NO generation in human HepG2 cells assessed as nitrite levels at 0.33 uM after 60 hrs by Griess assay (reference value: 12.8 +/- 1.5 uM); assay type: functional
L02 [23] = experiment: Induction of NO generation in human HL-7702 cells assessed as nitrite levels at 0.66 uM after 1 hr by Griess assay (reference value: 11.6 +/- 1.1 uM); assay type: functional
L02 [24] = experiment: Induction of NO generation in human HL-7702 cells assessed as nitrite levels at 0.66 uM after 3 hrs by Griess assay (reference value: 11.6 +/- 1.2 uM); assay type: functional
L02 [25] = experiment: Induction of NO generation in human HL-7702 cells assessed as nitrite levels at 0.66 uM after 12 hrs by Griess assay (reference value: 11.8 +/- 1.2 uM); assay type: functional
L02 [26] = experiment: Induction of NO generation in human HL-7702 cells assessed as nitrite levels at 0.66 uM after 24 hrs by Griess assay (reference value: 11.6 +/- 1.1 uM); assay type: functional
L02 [27] = experiment: Induction of NO generation in human HL-7702 cells assessed as nitrite levels at 0.66 uM after 48 hrs by Griess assay (reference value: 11.6 +/- 1.1 uM); assay type: functional
L02 [28] = experiment: Induction of NO generation in human HL-7702 cells assessed as nitrite levels at 0.66 uM after 60 hrs by Griess assay (reference value: 11.8 +/- 1.3 uM); assay type: functional
HepG2 [29] = experiment: Growth inhibition of human HepG2 cells pre-incubated with mtADH inhibitor PCDA for 2.5 hrs followed by 0.66 uM compound treatment for 24 hrs by MTT assay; assay type: functional, cell-based
HepG2 [30] = experiment: Induction of apoptosis in human HepG2 cells assessed as increase in cleaved PARP level up to 0.66 uM after 24 hrs by Western blot analysis; assay type: functional, cell-based
HepG2 [31] = experiment: Induction of apoptosis in human HepG2 cells assessed as increase in cleaved caspase9 level up to 0.66 uM after 24 hrs by Western blot analysis; assay type: functional, cell-based
HepG2 [32] = experiment: Cell cycle arrest in human HepG2 cells assessed as accumulation at S phase after 24 hrs by propidium iodide/RNAse staining-based flow cytometric analysis; assay type: functional
HepG2 [33] = experiment: Induction of apoptosis in human HepG2 cells assessed as increase in cleaved caspase3 level up to 0.66 uM after 24 hrs by Western blot analysis; assay type: functional, cell-based
HepG2 [34] = experiment: Induction of apoptosis in human HepG2 cells assessed as inhibition of p53-MDM2 interaction by measuring upregulation of p53 expression after 24 hrs by Western blot analysis; assay type: functional, cell-based
HepG2 [35] = experiment: Induction of apoptosis in human HepG2 cells assessed as inhibition of p53-MDM2 interaction by measuring p53/MDM2 ratio at 1 uM after 24 hrs by Western blot analysis (reference value: 0.48); assay type: functional

COc1cccc2oc3cc(OCCCCCO[N+](=O)[O-])cc(O)c3c(=O)c12
Activity (HepG2 [1]): 56.2%
IC50 (HepG2 [2]): 0.33 µM
IC50 (MDA-MB-231): 0.57 µM
IC50 (L02 [3]): 377 µM
IC50 (NIH3T3): 378 µM
selectivity ratio [4]: 1140
Activity (HepG2 [5]): 4.6%
Activity (HepG2 [6]): 64.8%
Activity (HepG2 [7]): 41.7%
Activity (HepG2 [8]): 11.8%
Activity (HepG2 [9]): 21.6 µM
Activity (HepG2 [10]): 15.6 µM
Activity (HepG2 [11]): 18.8 µM
Activity (HepG2 [12]): 31.4 µM
Activity (HepG2 [13]): 22.9 µM
Activity (HepG2 [14]): 29.6 µM
Activity (HepG2 [15]): 36 µM
Activity (HepG2 [16]): 25.7 µM
Activity (HepG2 [17]): 31.5 µM
Activity (HepG2 [18]): 21.3 µM
Activity (HepG2 [19]): 26.6 µM
Activity (HepG2 [20]): 20.2 µM
Activity (HepG2 [21]): 15.7 µM
Activity (HepG2 [22]): 18.2 µM
Activity (L02 [23]): 14.2 µM
Activity (L02 [24]): 15.1 µM
Activity (L02 [25]): 19.3 µM
Activity (L02 [26]): 19.4 µM
Activity (L02 [27]): 16.2 µM
Activity (L02 [28]): 14.5 µM
growth inhibition (GI) (HepG2 [29]): inactive
Activity (HepG2 [30]): Dose-dependent effect
Activity (HepG2 [31]): Dose-dependent effect
Activity (HepG2 [32]): Dose-dependent effect
Activity (HepG2 [33]): Dose-dependent effect
Activity (HepG2 [34]): Dose-dependent effect
Ratio (HepG2 [35]): 6.46
